Assay results published in patent US20020137929A1, “1 - (3-heterocyclylphenyl) isothiourea, -isourea, -guanidine and -amidine herbicidal agents” (Intellectual Property Department, BASF Aktiengesellschaft, priority 1998, published 2002).

Assays:
AMBEL (Ragweed, Common) = experiment: Postemergence herbicidal evaluation; assay type: in vivo, Ambrosia artemisifolia; details: for Herbicidal rating AMBEL: postemergence
Outline: (§1)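 Compound is applied as a foliar spray to seedlings about two weeks old, formulated in equal parts acetone and water with 0.5% TWEEN 20 and delivered at 40 psi to give about 0.0156–0.500 kg per hectare. Injury is rated visually 0–9 after four to five weeks.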

CASOB (Sicklepod) [1] = experiment: Postemergence herbicidal evaluation; assay type: in vivo, Cassia obtusifolia; details: for Herbicidal rating CASOB: postemergence
Outline: as §1

GALAP (Galium) = experiment: Postemergence herbicidal evaluation; assay type: in vivo, Galium aparine; details: for Herbicidal rating GALAP: postemergence
Outline: as §1

[2] = system: IPOHE (Morningglory, Ivyleaf); experiment: Postemergence herbicidal evaluation; assay type: in vivo, Ipomoea hederacea; details: for Herbicidal rating IPOHE: postemergence
Outline: as §1

ABUTH (Velvetleaf) = experiment: Preemergence herbicidal evaluation; assay type: in vivo, Abutilon theophrasti; details: rated 4-5 weeks after treatment
Outline: (§2)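 Each species is sown separately in potting soil over roughly an inch of soil before any emergence. The soil surface then receives an aqueous acetone spray delivering about 0.0156 to 0.500 kg/ha of compound. After four to five weeks, injury is scored from 0 to 9 relative to a control.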

CASOB (Sicklepod) [3] = experiment: Preemergence herbicidal evaluation; assay type: in vivo, Cassia obtusifolia; details: rated 4-5 weeks after treatment
Outline: as §2

[4] = system: IPOHE (Morningglory, Ivyleaf); experiment: Preemergence herbicidal evaluation; assay type: in vivo, Ipomoea hederacea; details: rated 4-5 weeks after treatment
Outline: as §2

ECHCG (Barnyardgrass) = experiment: Preemergence herbicidal evaluation; assay type: in vivo, Echinochloa crus-galli; details: rated 4-5 weeks after treatment
Outline: as §2

[5] = system: GLXMAW (Soybean, Williams); experiment: Preemergence herbicidal evaluation; assay type: in vivo, Glycine max, (L.) Merr. cv Williams; details: rated 4-5 weeks after treatment
Outline: as §2

[6] = system: TRZAWR (Wheat, Winter, cv Riband); experiment: Preemergence herbicidal evaluation; assay type: in vivo, Triticum aestivum; details: rated 4-5 weeks after treatment
Outline: as §2

ZEAMX (Corn, Field) = experiment: Preemergence herbicidal evaluation; assay type: in vivo, Zea mays; details: rated 4-5 weeks after treatment
Outline: as §2

MOOVA (Monochoria) = experiment: Preemergence weed control under flooded paddy conditions; assay type: in vivo, Monochoria vaginalis; details: rated 3-4 weeks after treatment
Outline: (§3)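 Ratings on a 0-9 visual scale cover stand, vigor, malformation, size, chlorosis and overall appearance relative to a control, taken three to four weeks post-treatment. Application was into flood water over freshly sown silt loam at roughly 0.0313 to 0.500 kg/ha.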

[7] = system: SAGPY (Arrowhead (Pygmaea)); experiment: as above; assay type: in vivo, Sagittaria pygmaea; details: rated 3-4 weeks after treatment
Outline: as §3

CYPIR (Rice Flatsedge) = experiment: Postemergence weed control under flooded paddy conditions; assay type: in vivo, Cyperus iria; details: postemergence weeds, rated 3 to 4 weeks after treatment
Outline: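 Flood-water application, about 0.0313–0.500 kg/ha a.i. in aqueous/acetone 50/50 v/v; water depth 1.5–3 cm throughout. Weeds 3–5 cm, rice 1.5–2.5 leaf. Greenhouse; 0–9 visual rating vs control at 3–4 wk.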

CC(C)S(=O)(=O)NC(=O)CC1SC(=Nc2cc(-n3c(=O)cc(C(F)(F)F)n(C)c3=O)c(F)cc2Cl)N(C)C1=O (centres unmarked) [Compound 119, 2-{{2-Chloro-5-[3,6-dihydro-3-methyl-2,6-dioxo-4-(trifluoromethyl)-1(2H)-pyrimidinyl]-4-fluorophenyl}imino}-N-(isopropylsulfonyl)-3-methyl-4-oxo-5-thiazolidineacetamide]
3.5: herbicidal effect rating, SAGPY ([7]; 0.1250 kg/ha)
7.0: Herbicidal rating CASOB (CASOB (Sicklepod) [1]; rate 0.0625 kg/ha)
8.0: herbicidal effect rating, MOOVA (MOOVA (Monochoria); 0.0625 kg/ha)
7.5: herbicidal effect rating, MOOVA (MOOVA (Monochoria); 0.0313 kg/ha)
0.0: Preemergence herbicidal rating ABUTH (ABUTH (Velvetleaf); rate 0.0156 kg/ha) | Preemergence herbicidal rating CASOB (CASOB (Sicklepod) [3]; rate 0.0156 kg/ha) | Preemergence herbicidal rating CASOB (CASOB (Sicklepod) [3]; rate 0.0313 kg/ha) | Preemergence herbicidal rating CASOB (CASOB (Sicklepod) [3]; rate 0.0625 kg/ha) | Preemergence herbicidal rating IPOHE ([4]; rate 0.0156 kg/ha) | Preemergence herbicidal rating IPOHE ([4]; rate 0.0313 kg/ha) | Preemergence herbicidal rating IPOHE ([4]; rate 0.0625 kg/ha) | Preemergence herbicidal rating ECHCG (ECHCG (Barnyardgrass); rate 0.0156 kg/ha) | Preemergence herbicidal rating ECHCG (ECHCG (Barnyardgrass); rate 0.0313 kg/ha) | Preemergence herbicidal rating ECHCG (ECHCG (Barnyardgrass); rate 0.0625 kg/ha) | Preemergence herbicidal rating GLXMAW ([5]; rate 0.0156 kg/ha) | Preemergence herbicidal rating GLXMAW ([5]; rate 0.0313 kg/ha) | Preemergence herbicidal rating GLXMAW ([5]; rate 0.0625 kg/ha) | Preemergence herbicidal rating TRZAWR ([6]; rate 0.0156 kg/ha) | Preemergence herbicidal rating TRZAWR ([6]; rate 0.0313 kg/ha) | Preemergence herbicidal rating TRZAWR ([6]; rate 0.0625 kg/ha) | Preemergence herbicidal rating TRZAWR ([6]; rate 0.1250 kg/ha) | Preemergence herbicidal rating TRZAWR ([6]; rate 0.2500 kg/ha) | Preemergence herbicidal rating ZEAMX (ZEAMX (Corn, Field); rate 0.0156 kg/ha) | Preemergence herbicidal rating ZEAMX (ZEAMX (Corn, Field); rate 0.0313 kg/ha) | Preemergence herbicidal rating ZEAMX (ZEAMX (Corn, Field); rate 0.0625 kg/ha) | Preemergence herbicidal rating ZEAMX (ZEAMX (Corn, Field); rate 0.1250 kg/ha)
9.0: Herbicidal rating AMBEL (AMBEL (Ragweed, Common); rate 0.0156 kg/ha) | Herbicidal rating AMBEL (AMBEL (Ragweed, Common); rate 0.0313 kg/ha) | Herbicidal rating AMBEL (AMBEL (Ragweed, Common); rate 0.0625 kg/ha) | Herbicidal rating IPOHE ([2]; rate 0.0156 kg/ha) | Herbicidal rating IPOHE ([2]; rate 0.0313 kg/ha) | Herbicidal rating IPOHE ([2]; rate 0.0625 kg/ha) | Preemergence herbicidal rating ABUTH (ABUTH (Velvetleaf); rate 0.1250 kg/ha) | Preemergence herbicidal rating ABUTH (ABUTH (Velvetleaf); rate 0.2500 kg/ha) | Preemergence herbicidal rating IPOHE ([4]; rate 0.1250 kg/ha) | Preemergence herbicidal rating IPOHE ([4]; rate 0.2500 kg/ha) | herbicidal effect rating, MOOVA (MOOVA (Monochoria); 0.1250 kg/ha) | herbicidal effect rating, MOOVA (MOOVA (Monochoria); 0.2500 kg/ha) | Herbicidal rating CYPIR (CYPIR (Rice Flatsedge); Rate 0.2500 kg/ha)
5.0: Herbicidal rating CASOB (CASOB (Sicklepod) [1]; rate 0.0313 kg/ha)
2.5: herbicidal effect rating, SAGPY ([7]; 0.0313 kg/ha)
6.0: Herbicidal rating CYPIR (CYPIR (Rice Flatsedge); Rate 0.1250 kg/ha)
1.0: Herbicidal rating GALAP (GALAP (Galium); rate 0.0156 kg/ha) | Herbicidal rating GALAP (GALAP (Galium); rate 0.0313 kg/ha) | Preemergence herbicidal rating GLXMAW ([5]; rate 0.1250 kg/ha) | Preemergence herbicidal rating ZEAMX (ZEAMX (Corn, Field); rate 0.2500 kg/ha)
3.0: Herbicidal rating CASOB (CASOB (Sicklepod) [1]; rate 0.0156 kg/ha) | Herbicidal rating GALAP (GALAP (Galium); rate 0.0625 kg/ha) | Preemergence herbicidal rating ABUTH (ABUTH (Velvetleaf); rate 0.0313 kg/ha) | Preemergence herbicidal rating CASOB (CASOB (Sicklepod) [3]; rate 0.2500 kg/ha) | herbicidal effect rating, SAGPY ([7]; 0.0625 kg/ha)
2.0: Preemergence herbicidal rating ECHCG (ECHCG (Barnyardgrass); rate 0.1250 kg/ha) | Preemergence herbicidal rating ECHCG (ECHCG (Barnyardgrass); rate 0.2500 kg/ha) | Preemergence herbicidal rating GLXMAW ([5]; rate 0.2500 kg/ha) | Herbicidal rating CYPIR (CYPIR (Rice Flatsedge); Rate 0.0313 kg/ha)
4.0: Preemergence herbicidal rating ABUTH (ABUTH (Velvetleaf); rate 0.0625 kg/ha)
4.5: herbicidal effect rating, SAGPY ([7]; 0.2500 kg/ha)

CN1C(=O)C(CC(=O)O)SC1=Nc1cc(-n2c(=O)cc(C(F)(F)F)n(C)c2=O)c(F)cc1Cl (centres unmarked) [Compound 63, 2-{{2-Chloro-5-[3,6-dihydro-3-methyl-2,6-dioxo-4-(trifluoromethyl)-1(2H)-pyrimidinyl]-4-fluoro-phenyl}imino}-3-methyl-4-oxo-5-thiazolidineacetic acid]
7.0: Postemergence herbicidal rating GALAP (GALAP (Galium); Rate 0.0630 kg/ha) | Preemergence herbicidal rating CASOB (CASOB (Sicklepod) [3]; rate 0.2500 kg/ha) | Preemergence herbicidal rating IPOHE ([4]; rate 0.1250 kg/ha) | Preemergence herbicidal rating GLXMAW ([5]; rate 0.2500 kg/ha) | Preemergence herbicidal rating TRZAWR ([6]; rate 0.2500 kg/ha) | Preemergence herbicidal rating ZEAMX (ZEAMX (Corn, Field); rate 0.2500 kg/ha) | SAGPY herbicidal effect rating ([7]; 0.0625 kg/ha) | Herbicidal rating CYPIR (CYPIR (Rice Flatsedge); Rate 0.1250 kg/ha) | Herbicidal rating CYPIR (CYPIR (Rice Flatsedge); Rate 0.2500 kg/ha)
4.0: Preemergence herbicidal rating ECHCG (ECHCG (Barnyardgrass); rate 0.1250 kg/ha) | Preemergence herbicidal rating GLXMAW ([5]; rate 0.0625 kg/ha) | SAGPY herbicidal effect rating ([7]; 0.0313 kg/ha)
3.0: Postemergence herbicidal rating CASOB (CASOB (Sicklepod) [1]; Rate 0.0315 kg/ha)
0.0: Postemergence herbicidal rating CASOB (CASOB (Sicklepod) [1]; Rate 0.0158 kg/ha) | Preemergence herbicidal rating CASOB (CASOB (Sicklepod) [3]; rate 0.0156 kg/ha) | Preemergence herbicidal rating IPOHE ([4]; rate 0.0156 kg/ha) | Preemergence herbicidal rating ECHCG (ECHCG (Barnyardgrass); rate 0.0156 kg/ha) | Preemergence herbicidal rating ECHCG (ECHCG (Barnyardgrass); rate 0.0313 kg/ha) | Preemergence herbicidal rating GLXMAW ([5]; rate 0.0156 kg/ha) | Preemergence herbicidal rating TRZAWR ([6]; rate 0.0156 kg/ha) | Preemergence herbicidal rating TRZAWR ([6]; rate 0.0313 kg/ha) | Preemergence herbicidal rating ZEAMX (ZEAMX (Corn, Field); rate 0.0156 kg/ha)
6.0: Postemergence herbicidal rating AMBEL (AMBEL (Ragweed, Common); Rate 0.0158 kg/ha) | Postemergence herbicidal rating AMBEL (AMBEL (Ragweed, Common); Rate 0.0315 kg/ha) | Postemergence herbicidal rating GALAP (GALAP (Galium); Rate 0.0315 kg/ha) | Preemergence herbicidal rating ABUTH (ABUTH (Velvetleaf); rate 0.0313 kg/ha) | Preemergence herbicidal rating IPOHE ([4]; rate 0.0625 kg/ha) | Preemergence herbicidal rating GLXMAW ([5]; rate 0.1250 kg/ha) | Preemergence herbicidal rating TRZAWR ([6]; rate 0.1250 kg/ha) | Preemergence herbicidal rating ZEAMX (ZEAMX (Corn, Field); rate 0.1250 kg/ha) | Herbicidal rating CYPIR (CYPIR (Rice Flatsedge); Rate 0.0625 kg/ha)
2.0: Preemergence herbicidal rating CASOB (CASOB (Sicklepod) [3]; rate 0.0313 kg/ha) | Preemergence herbicidal rating CASOB (CASOB (Sicklepod) [3]; rate 0.0625 kg/ha) | Preemergence herbicidal rating CASOB (CASOB (Sicklepod) [3]; rate 0.1250 kg/ha) | Preemergence herbicidal rating ZEAMX (ZEAMX (Corn, Field); rate 0.0625 kg/ha) | Herbicidal rating CYPIR (CYPIR (Rice Flatsedge); Rate 0.0313 kg/ha)
5.0: Postemergence herbicidal rating CASOB (CASOB (Sicklepod) [1]; Rate 0.0630 kg/ha)
9.0: Postemergence herbicidal rating AMBEL (AMBEL (Ragweed, Common); Rate 0.0630 kg/ha) | Postemergence herbicidal rating IPOHE ([2]; Rate 0.0158 kg/ha) | Postemergence herbicidal rating IPOHE ([2]; Rate 0.0315 kg/ha) | Postemergence herbicidal rating IPOHE ([2]; Rate 0.0630 kg/ha) | Preemergence herbicidal rating ABUTH (ABUTH (Velvetleaf); rate 0.0625 kg/ha) | Preemergence herbicidal rating ABUTH (ABUTH (Velvetleaf); rate 0.1250 kg/ha) | Preemergence herbicidal rating ABUTH (ABUTH (Velvetleaf); rate 0.2500 kg/ha) | Preemergence herbicidal rating IPOHE ([4]; rate 0.2500 kg/ha) | Preemergence herbicidal rating ECHCG (ECHCG (Barnyardgrass); rate 0.2500 kg/ha) | MOOVA herbicidal effect rating (MOOVA (Monochoria); 0.0313 kg/ha) | MOOVA herbicidal effect rating (MOOVA (Monochoria); 0.0625 kg/ha) | MOOVA herbicidal effect rating (MOOVA (Monochoria); 0.1250 kg/ha) | MOOVA herbicidal effect rating (MOOVA (Monochoria); 0.2500 kg/ha) | SAGPY herbicidal effect rating ([7]; 0.1250 kg/ha) | SAGPY herbicidal effect rating ([7]; 0.2500 kg/ha)
1.0: Postemergence herbicidal rating GALAP (GALAP (Galium); Rate 0.0158 kg/ha) | Preemergence herbicidal rating ABUTH (ABUTH (Velvetleaf); rate 0.0156 kg/ha) | Preemergence herbicidal rating IPOHE ([4]; rate 0.0313 kg/ha) | Preemergence herbicidal rating ECHCG (ECHCG (Barnyardgrass); rate 0.0625 kg/ha) | Preemergence herbicidal rating GLXMAW ([5]; rate 0.0313 kg/ha) | Preemergence herbicidal rating TRZAWR ([6]; rate 0.0625 kg/ha) | Preemergence herbicidal rating ZEAMX (ZEAMX (Corn, Field); rate 0.0313 kg/ha)
